Source: ChEMBL document CHEMBL3045935, “Benzoxepin derivatives: design, synthesis, and pharmacological evaluation with sedativehypnotic effect” (2012)

Columns and labels:
Mus musculus [1] = experiment: Sedative-hypnotic activity in Mus musculus (mouse) assessed as decrease in onset of phenobarbital-induced sleep at 19.6 to 42.6 mg/kg, ip incubated for 30 min prior to phenobarbital challenge relative to phenobarbital-treated mouse; assay type: functional; details: dose mg/kg 19.6-42.6; route intraperitoneal
Mus musculus [2] = experiment: Sedative-hypnotic activity in Mus musculus (mouse) assessed as increase in duration of phenobarbital-induced sleep at 19.6 to 42.6 mg/kg, ip incubated for 30 min prior to phenobarbital challenge relative to phenobarbital-treated mouse; assay type: functional; details: dose mg/kg 19.6-42.6; route intraperitoneal

Row | SMILES | Time (Mus musculus [1]) [min] | Time (Mus musculus [2]) [min]
1 | O=C1CCCOc2ccc(Cl)cc21 | 34.5 | 59.5
2 | O=C1c2cc(Cl)ccc2OCCC1CN1CCN(c2ccccc2Cl)CC1 (configuration not stated) | 45.5 | 45.25
3 | O=C1c2cc(Cl)ccc2OCCC1CN1CCOCC1 (configuration not stated) | 40.8 | 75.25
4 | CCC1(c2ccccc2)C(=O)NC(=O)NC1=O [PHENOBARBITAL] | 46.8 | 100.5
5 | COc1ccc(N2N=C3c4cc(Cl)ccc4OCCC3CC2=O)cc1 (configuration not stated) | 42.5 | 38.45
6 | O=C1CC2CCOc3ccc(Cl)cc3C2=NN1c1ccccc1 (configuration not stated) | 20 | 100.15
7 | CCC1(c2ccccc2)C(=O)NC(=O)N(C2CCOc3ccc(Cl)cc3C2=O)C1=O (configuration not stated) | 21.5 | 123.25
8 | O=C1CC2CCOc3ccc(Cl)cc3C2=NN1c1ccc(Cl)cc1 (configuration not stated) | 49.5 | 42.15
9 | O=C1c2cc(Cl)ccc2OCCC1Br (configuration not stated) | 47 | 39.15
10 | O=C1/C(=C\c2ccc(Cl)cc2)CCOc2ccc(Cl)cc21 | 15 | 105.5
11 | O=C1c2cc(Cl)ccc2OCCC1CN1CCCCC1 (configuration not stated) | 24.5 | 99.3
12 | O=C1/C(=C\c2ccc(F)cc2)CCOc2ccc(Cl)cc21 | 16.5 | 103.15
13 | COc1ccc(/C=C2/CCOc3ccc(Cl)cc3C2=O)cc1 | 17.6 | 79.4
14 | CN(C)CC1CCOc2ccc(Cl)cc2C1=O (configuration not stated) | 34 | 61.3
15 | O=C1/C(=C\c2ccccc2)CCOc2ccc(Cl)cc21 | 18 | 84.3
16 | CN1CCN(CC2CCOc3ccc(Cl)cc3C2=O)CC1 (configuration not stated) | 38.8 | 92.35
